Laboratory results: the SangsterLogP compilation

Row | Structure (SMILES) | logP
1 | CCCCCCCCNC(=C[N+](=O)[O-])NS(=O)(=O)c1cnccc1NCCCCCCCC | 2.86
2 | CCNc1ccncc1S(=O)(=O)NC(=C[N+](=O)[O-])NC(C)C | -0.48
3 | O=[N+]([O-])C=C(NC1CCCCC1)NS(=O)(=O)c1cnccc1NC1CCCCC1 | 1.59
4 | CCCCCCCNc1ccncc1S(=O)(=O)NC(=C[N+](=O)[O-])NCCCCCC | 1.99
5 | CCCCCCNC(=C[N+](=O)[O-])NS(=O)(=O)c1cnccc1NCCCCCC | 1.67
6 | CCCCCCNC(=C[N+](=O)[O-])NS(=O)(=O)c1cnccc1Nc1cccc(C)c1 | 1.66

More lines, now with the values ahead:

Row | logP | Structure (SMILES)
7 | 2.59 | CCCCCCCCNc1ccncc1S(=O)(=O)NC(=C[N+](=O)[O-])NCCCCCCC
8 | 2.31 | CCCCCCCCNc1ccncc1S(=O)(=O)NC(=C[N+](=O)[O-])NCCCCCC
9 | 2.3 | CCCCCCCNC(=C[N+](=O)[O-])NS(=O)(=O)c1cnccc1NCCCCCCC
10 | 2.27 | CCCCCCCCNC(=C[N+](=O)[O-])NS(=O)(=O)c1cnccc1NCCCCCC
11 | 1.97 | CCCCCCCNC(=C[N+](=O)[O-])NS(=O)(=O)c1cnccc1NCCCCCC
